# Laboratory results reported in PubChem BioAssay AID1745844 (Carcinogenic Potency Database (CPDB), 2022).
# System: rodent lifetime carcinogenesis bioassay, tumor incidence TD50
# Assay: chronic cancer bioassays in animals – CPDB, compiled studies (AID 1745844)
smiles,measurement,setting,value
S=C(SN1CCOCC1)N1CCOCC1,TD50,"rat, strain Sprague-Dawley, females, in feed, site: kidney, lesion: several types, types named in the paper, dosed 112 weeks, study length 112 weeks",338 mg/kg/day
same,TD50,"rat, strain Sprague-Dawley, females, in feed, site: kidney, lesion: squamous-cell carcinoma, dosed 112 weeks, study length 112 weeks",571 mg/kg/day
same,TD50,"rat, strain Sprague-Dawley, females, in feed, site: kidney, lesion: urothelial carcinoma, dosed 112 weeks, study length 112 weeks",571 mg/kg/day
same,TD50,"rat, strain Sprague-Dawley, females, in feed, site: kidney, lesion: urothelial papilloma, dosed 112 weeks, study length 112 weeks",1740 mg/kg/day
same,TD50,"rat, strain Sprague-Dawley, females, in feed, site: urinary bladder, lesion: several types, types named in the paper, dosed 112 weeks, study length 112 weeks",206 mg/kg/day
same,TD50,"rat, strain Sprague-Dawley, females, in feed, site: urinary bladder, lesion: squamous-cell carcinoma, dosed 112 weeks, study length 112 weeks",1740 mg/kg/day
same,TD50,"rat, strain Sprague-Dawley, females, in feed, site: urinary bladder, lesion: squamous-cell papilloma, dosed 112 weeks, study length 112 weeks",862 mg/kg/day
same,TD50,"rat, strain Sprague-Dawley, females, in feed, site: urinary bladder, lesion: urothelial carcinoma, dosed 112 weeks, study length 112 weeks",862 mg/kg/day
same,TD50,"rat, strain Sprague-Dawley, females, in feed, site: urinary bladder, lesion: urothelial papilloma, dosed 112 weeks, study length 112 weeks",571 mg/kg/day
same,TD50,"rat, strain Sprague-Dawley, females, in feed, site: urinary tract, lesion: several types, types named in the paper, dosed 112 weeks, study length 112 weeks",96.9 mg/kg/day
same,TD50,"rat, strain Sprague-Dawley, males, in feed, site: kidney, lesion: several types, types named in the paper, dosed 112 weeks, study length 112 weeks",528 mg/kg/day
same,TD50,"rat, strain Sprague-Dawley, males, in feed, site: kidney, lesion: squamous-cell carcinoma, dosed 112 weeks, study length 112 weeks",1390 mg/kg/day
same,TD50,"rat, strain Sprague-Dawley, males, in feed, site: kidney, lesion: urothelial carcinoma, dosed 112 weeks, study length 112 weeks",690 mg/kg/day
same,TD50,"rat, strain Sprague-Dawley, males, in feed, site: urinary bladder, lesion: several types, types named in the paper, dosed 112 weeks, study length 112 weeks",130 mg/kg/day
same,TD50,"rat, strain Sprague-Dawley, males, in feed, site: urinary bladder, lesion: squamous-cell carcinoma, dosed 112 weeks, study length 112 weeks",690 mg/kg/day
same,TD50,"rat, strain Sprague-Dawley, males, in feed, site: urinary bladder, lesion: squamous-cell papilloma, dosed 112 weeks, study length 112 weeks",1390 mg/kg/day
same,TD50,"rat, strain Sprague-Dawley, males, in feed, site: urinary bladder, lesion: urothelial carcinoma, dosed 112 weeks, study length 112 weeks",340 mg/kg/day
same,TD50,"rat, strain Sprague-Dawley, males, in feed, site: urinary bladder, lesion: urothelial papilloma, dosed 112 weeks, study length 112 weeks",457 mg/kg/day
same,TD50,"rat, strain Sprague-Dawley, males, in feed, site: urinary tract, lesion: several types, types named in the paper, dosed 112 weeks, study length 112 weeks",85.5 mg/kg/day
O[C@H]([C@H](O)[C@@H](O)CBr)[C@H](O)CBr,TD50,"mouse, strain Swiss, females, i.p., site: all sites, lesion: leukemia, dosed 26 weeks, study length 78 weeks",46.3 mg/kg/day
same,TD50,"mouse, strain Swiss, females, i.p., site: all sites, lesion: lymphosarcoma, dosed 26 weeks, study length 78 weeks",12.2 mg/kg/day
same,TD50,"mouse, strain Swiss, females, i.p., site: any site (literature study), lesion: benign tumor, dosed 26 weeks, study length 78 weeks",24.5 mg/kg/day
same,TD50,"mouse, strain Swiss, females, i.p., site: any site (literature study), lesion: malignant tumor, dosed 26 weeks, study length 78 weeks",4.75 mg/kg/day
same,TD50,"mouse, strain Swiss, females, i.p., site: any site (literature study), lesion: several types, types named in the paper, dosed 26 weeks, study length 78 weeks",2.45 mg/kg/day
same,TD50,"mouse, strain Swiss, females, i.p., site: lung, lesion: several types, types named in the paper, dosed 26 weeks, study length 78 weeks",9.23 mg/kg/day
same,TD50,"mouse, strain Swiss, males, i.p., site: all sites, lesion: lymphatic leukemia, dosed 26 weeks, study length 78 weeks",32.4 mg/kg/day
same,TD50,"mouse, strain Swiss, males, i.p., site: all sites, lesion: lymphosarcoma, dosed 26 weeks, study length 78 weeks",17.6 mg/kg/day
same,TD50,"mouse, strain Swiss, males, i.p., site: any site (literature study), lesion: malignant tumor, dosed 26 weeks, study length 78 weeks",15.2 mg/kg/day
same,TD50,"mouse, strain Swiss, males, i.p., site: any site (literature study), lesion: several types, types named in the paper, dosed 26 weeks, study length 78 weeks",12.7 mg/kg/day
same,TD50,"mouse, strain Swiss, males, i.p., site: lung, lesion: several types, types named in the paper, dosed 26 weeks, study length 78 weeks",13.5 mg/kg/day
same,TD50,"rat, strain Charles River CD (Sprague-Dawley), males, i.p., site: all sites, lesion: lymphosarcoma, dosed 26 weeks, study length 78 weeks",182 mg/kg/day
same,TD50,"rat, strain Charles River CD (Sprague-Dawley), males, i.p., site: any site (literature study), lesion: malignant tumor, dosed 26 weeks, study length 78 weeks",5.05 mg/kg/day
same,TD50,"rat, strain Charles River CD (Sprague-Dawley), males, i.p., site: any site (literature study), lesion: several types, types named in the paper, dosed 26 weeks, study length 78 weeks",3.13 mg/kg/day
same,TD50,"rat, strain Charles River CD (Sprague-Dawley), males, i.p., site: mammary gland, lesion: squamous-cell carcinoma, dosed 26 weeks, study length 78 weeks",182 mg/kg/day
same,TD50,"rat, strain Charles River CD (Sprague-Dawley), males, i.p., site: peritoneum, lesion: sarcoma, dosed 26 weeks, study length 78 weeks",59.2 mg/kg/day
same,TD50,"rat, strain Charles River CD (Sprague-Dawley), males, i.p., site: skin, lesion: several types, types named in the paper, dosed 26 weeks, study length 78 weeks",8.37 mg/kg/day
